The nature of data set [1]: Lipophilicity determination by HPLC. The format is physicochemical. The note with it: for log D6.5: HPLC C18, MeOH 72%/acetate-buffered saline pH 6.5 28%; for log D7.4: HPLC C18, MeOH 72%/acetate-buffered saline pH 7.4 28%; for log k: logarithm of capacity factor, HPLC C18, MeOH 72%/H2O 28%. The text has this:
. A chromatographic column Symmetry® C18 5 μm, 4.6 × 250 mm, Part No. W21751W016 (Waters Corp, Milford, MA, USA) was used. The HPLC separation process was monitored by ChemStation for LC 3D systems (Agilent Technologies). Isocratic elution by a mixture of MeOH (HPLC grade, 72%) and H2O-HPLC Mili-Q grade (28%) as a mobile phase was used for the determination of capacity factor k. Isocratic elution by a mixture of MeOH (HPLC grade, 72%) and acetate-buffered saline (pH 7.4 and pH 6.5) (28%) as a mobile phase was used for the determination of distribution coefficient expressed as D7.4 and D6.5. The total flow of the column was 1.0 mL/min, injection was 20 μL, column temperature was 40 °C, and sample temperature was 10 °C. The detection wavelength of 210 nm was chosen. A KI methanolic solution was used for the determination of the dead times (tD). Retention times (tR) were measured in minutes. The capacity factors k were calculated according to the formula k = (tR − tD)/tD, where tR is the retention time of the solute, and tD is the dead time obtained using an unretained analyte. The distribution coefficients DpH were calculated according to the formula DpH = (tR − tD)/tD. Each experiment was repeated three times.

The subject of data set [2] is M. smegmatis ATCC 700084. Description: In vitro antimycobacterial evaluation, MIC (broth dilution micro-method). Type of data set: cell-based, Mycobacterium smegmatis. The note with it: Mycolicibacterium smegmatis. As for the experimental part: For M. smegmatis, the broth dilution micro-method in Middlebrook 7H9 medium (Difco) supplemented with ADC Enrichment (Difco) was used. […] Bacterial inocula were prepared by transferring colonies from culture to sterile water. The cell density was adjusted to 0.5 McFarland units using a densitometer (Densi-La-Meter, LIAP, Riga, Latvia). The final inoculum was made by 1:1000 dilution of the suspension with sterile water. Drug-free controls, sterility controls, and controls consisting of medium and DMSO alone were included. The determination of results was performed visually after three days of static incubation in the darkness at 37 °C in an aerobic atmosphere.
(In general: Dilution methods test growth across graded concentrations, often in twofold steps.)

The test system of data set [3] is human monocytic leukemia cell line THP-1. Description: In vitro cell viability analysis (CCK-8). Type of data set: cell-based. The note with it: ± SD, n = 6, medium with 10% FBS, 24 h. As for the experimental part:
Human monocytic leukemia THP-1 cells obtained from the European Collection of Cell Cultures (ECACC, Salisbury, UK) were used for in vitro antiproliferative assays. They were routinely cultured in Roswell Park Memorial Institute RPMI 1640 medium supplemented with 10% fetal bovine serum (FBS), 2% L-glutamine, 1% penicillin, and streptomycin (all from Sigma-Aldrich) at 37 °C with 5% CO2. The cells were incubated in a complete medium (i.e., containing FBS) with test compounds at 37 °C with 5% CO2 for 24 h, similarly as we described previously. The effect of the test compounds dissolved in DMSO on cell viability was determined using a Cell Counting Kit-8 (CCK-8; Sigma) according to the manufacturer’s instructions.

Data set [4] has as its system Mycobacterium tuberculosis H37Ra/ATCC 25177. Description: In vitro antimycobacterial evaluation, MIC (alamarBlue). The settings on record: MT.
In data set [5] the test system is Staphylococcus aureus ATCC 29213. Description: In vitro antibacterial evaluation, MIC by microtitration broth method.
Data set [6] deals with methicillin-resistant S. aureus SA 3202. The description is as above. The note with it: Staphylococcus aureus.
For data set [7], the system named is methicillin-resistant S. aureus SA 630. The description is as above. The settings on record: Staphylococcus aureus.
The test system of data set [8] is methicillin-resistant S. aureus 63718. Described as above. The note with it: Staphylococcus aureus.
For data set [9], the system named is Enterococcus faecalis ATCC 29212. The data set is described as above.
The subject of data set [10] is vancomycin-resistant E. faecalis VRE 342B. The data set is described as above. The note with it: Enterococcus faecalis.
Data set [11] deals with vancomycin-resistant E. faecalis VRE 368. Described as above. The note with it: Enterococcus faecalis.
For data set [12], the system named is vancomycin-resistant E. faecalis VRE 725B. The description is as above. The settings on record: Enterococcus faecalis.
Data set [13] concerns Staphylococcus aureus ATCC 29213. Description: Determination of minimum bactericidal concentrations (agar aliquot subculture). The note with it: ATCC29213.
Data set [14] concerns methicillin-resistant S. aureus SA 630. The data set is described as above. The note with it: Staphylococcus aureus.
Setting [15] is: ATCC700084, 72 h, MS, three days, 37 °C, read-out: MIC.

Values after ≈ are worked out from the molar mass of the structure shown. Like-named read-outs stand apart in the source and are kept apart here.

Regarding `O=C(N[C@@H](Cc1ccccc1)C(=O)N[C@@H](Cc1ccccc1)C(=O)Nc1ccc(C(F)(F)F)cc1)c1cc(Cl)ccc1OCc1ccccc1` [5c], the “log D6.5” value in [1] amounted to 2.062. The “log D7.4” value in data set [1] is 2.096. Also, the log k in [1] amounted to 2.119. Further, the MIC in data set [2] (ATCC700084), in [4] (Table S2), in data set [5] (ATCC29213), in [6], in data set [7] and in [8] was above 256 µg/mL throughout. Besides, the MIC in [9] (ATCC29212), in data set [10], in [11] and in [12] was above 256 µg/mL in each case. Further, the IC50 – broadly, the concentration that gives 50% inhibition – in data set [3] was above 10 µM.
As to `C[C@H](NC(=O)c1cc(Cl)ccc1O)C(=O)Nc1ccc(C(F)(F)F)cc1` [3a, 5-Chloro-2-hydroxy-N-[(2S)-1-oxo-1-{[4-(trifluoromethyl)phenyl]amino}propan-2-yl]benzamide], in [1], the “log D6.5” value is reported as 0.804. Moreover, in data set [1], the “log D7.4” value worked out at 0.759. In addition, the “averaged lipophilicity value of log k/log D6.5/log D7.4” value in [1] (average of the three experimental descriptors) turned out to be 0.81 ± 0.05. Further, in [1], the log k came out at 0.866. The MIC (usually the lowest concentration found to suppress growth) was above 256 µg/mL in [2] (setting [15]); “n.a. n.d. (n.a. = no activity (MIC > 256 µg/mL))” in [4] (14 days, 37 °C); above 256 µg/mL in data set [5] (ATCC29213, 24 h); above 256 µg/mL in [6] (24 h); above 256 µg/mL in [7] (24 h); above 256 µg/mL in data set [8] (24 h). For the same compound, the minimum inhibitory concentration (MIC) was above 256 µg/mL in data set [9] (ATCC29212, 24 h); above 256 µg/mL in data set [10] (24 h); above 256 µg/mL in data set [11] (24 h); above 256 µg/mL in [12] (24 h). Moreover, in data set [3], the 50% inhibitory concentration (IC50) is above 10 µM.
For `CC(C)[C@H](NC(=O)c1cc(Cl)ccc1OCc1ccccc1)C(=O)Nc1ccc(C(F)(F)F)cc1` [2c, 2-(Benzyloxy)-5-chloro-N-[(2S)-3-methyl-1-oxo-1-{[4-(trifluoromethyl)phenyl]amino}butan-2-yl]benzamide], the “log D6.5” value in [1] came out at 1.711. Moreover, the “log D7.4” value in data set [1] turned out to be 1.697. In [1], this compound gave a log k of 1.683. The MIC in [2] (ATCC700084), in data set [4] (Table S2), in data set [5] (ATCC29213), in data set [6], in data set [7] and in data set [8] was above 256 µg/mL in each case. In addition, the MIC in [9] (ATCC29212), in data set [10], in [11] and in data set [12] was above 256 µg/mL in each case. In addition, the IC50 in data set [3] was above 10 µM.
In the case of `O=C(N[C@@H](Cc1ccccc1)C(=O)Nc1ccc(C(F)(F)F)cc1)c1cc(Cl)ccc1OCc1ccccc1` [2h], in data set [1], the “log D6.5” value worked out at 1.889. The “log D7.4” value in data set [1] turned out to be 1.871. Moreover, the log k in [1] came out at 1.852. In addition, the MIC in data set [2] (ATCC700084), in data set [4] (Table S2), in [5] (ATCC29213), in data set [6], in data set [7] and in data set [8] was above 256 µg/mL in each case. Further, the minimum inhibitory concentration (MIC) in [9] (ATCC29212), in [10], in data set [11] and in data set [12] was above 256 µg/mL in each case. This compound gave an IC50 in data set [3] above 10 µM.
As to `CC(C)C[C@H](NC(=O)[C@H](Cc1ccccc1)NC(=O)c1cc(Cl)ccc1O)C(=O)Nc1ccc(C(F)(F)F)cc1` [6b], the “log D6.5” value in [1] stood at 1.528. For the same compound, in data set [1], the “log D7.4” value is 1.453. Besides, the log k in data set [1] is 1.547. For the same compound, the MIC in [2] (setting [15]) is above 256 µg/mL; in data set [4] (14 days, 37 °C) it was “n.a. n.d. (n.a. = no activity (MIC > 256 µg/mL))”; in data set [5] (ATCC29213, 24 h), 55.6 µM; in [6] (24 h) it was 55.6 µM; in [7] (24 h) it was 55.6 µM; in [8] (24 h), 444 µM. Also, the MIC is above 256 µg/mL in [9] (ATCC29212, 24 h); above 256 µg/mL in data set [10] (24 h); above 256 µg/mL in [11] (24 h); above 256 µg/mL in data set [12] (24 h). In data set [3], this compound came in with an IC50 of 1.6 ± 1 µM. Besides, the MBC (in general, the lowest tested concentration that kills the bacteria rather than only halting them) in [13] was determined as 112 µM (≈ 64.5 µg/mL); in [14] it was 444 µM (≈ 256 µg/mL).
On to `CC(C)C[C@H](NC(=O)c1cc(Cl)ccc1OCc1ccccc1)C(=O)Nc1ccc(C(F)(F)F)cc1` [2f], for which the “log D6.5” value in data set [1] worked out at 2.014. For the same compound, the “log D7.4” value in [1] was determined as 1.995. Further, the log k in data set [1] is recorded as 1.975. The MIC in data set [2] (ATCC700084), in data set [4] (Table S2), in data set [5] (ATCC29213), in data set [6], in data set [7] and in data set [8] was above 256 µg/mL in each case. Further, the minimum inhibitory concentration (MIC) in [9] (ATCC29212), in data set [10], in [11] and in data set [12] was above 256 µg/mL in each case. Also, in [3], the 50% inhibitory concentration (IC50) was above 10 µM.
Take `O=C(N[C@@H](Cc1ccccc1)C(=O)N[C@@H](Cc1ccccc1)C(=O)Nc1ccc(C(F)(F)F)cc1)c1cc(Cl)ccc1O` [6c]: the “log D6.5” value in [1] stood at 1.548. Also, the “log D7.4” value in [1] was found to be 1.495. In [1], this compound displayed a log k of 1.587. The MIC was above 256 µg/mL in data set [2] (setting [15]); “n.a. n.d. (n.a. = no activity (MIC > 256 µg/mL))” in data set [4] (14 days, 37 °C); above 256 µg/mL in [5] (ATCC29213, 24 h); above 256 µg/mL in data set [6] (24 h); above 256 µg/mL in [7] (24 h); above 256 µg/mL in data set [8] (24 h). Also, the MIC was above 256 µg/mL in data set [9] (ATCC29212, 24 h); above 256 µg/mL in data set [10] (24 h); above 256 µg/mL in data set [11] (24 h); above 256 µg/mL in [12] (24 h). In data set [3], this compound registered an IC50 of 1.3 ± 1.1 µM.
`CCC[C@H](NC(=O)c1cc(Cl)ccc1OCc1ccccc1)C(=O)Nc1ccc(C(F)(F)F)cc1` [2b, 2-(Benzyloxy)-5-chloro-N-[(2S)-1-oxo-1-{[4-(trifluoromethyl)phenyl]amino}pentan-2-yl]benzamide]: the “log D6.5” value in [1] worked out at 1.742. Also, the “log D7.4” value in data set [1] stood at 1.731. In addition, the log k in [1] was 1.709. The MIC in data set [2] (ATCC700084), in [4] (Table S2), in data set [5] (ATCC29213), in [6], in data set [7] and in data set [8] was above 256 µg/mL in each case. Moreover, the MIC in data set [9] (ATCC29212), in data set [10], in data set [11] and in data set [12] was above 256 µg/mL throughout. In data set [3], the IC50 was above 10 µM.

For the origin of these results see publication PMC9569995, “Study of Biological Activities and ADMET-Related Properties of Salicylanilide-Based Peptidomimetics” (International Journal of Molecular Sciences, 2022).
